According to patent US20110178104A1, “Anti-Heparin Compounds” (POLYMEDIX INC., priority 2010, published 2011):
In brackets after ≈: the same amount, converted by molar mass.

Assays:
[1] = test system: Unfractionated heparin; experiment: aPTT clotting assay, UFH 0.4 U/mL in plasma (Example 10); format: biochemical; conditions: unfractionated heparin 0.4 U/mL in plasma; aPTT clotting
Protocol: aPTT clotting Assay: Unfractionated heparin was mixed with plasma at a final concentration of 0.4 U/mL (or concentration which increases aPTT time to between 120 and 300 seconds). […] The ACL Elite Hemostasis analyzer (Beckman Coulter™) was used to add aPTT reagent (HemosIL SynthASil) to supplemented plasma. Clotting was initiated by addition of CaCl2 and time to clot was recorded.

[2] = test system: fondaparinux; experiment: FXa amidolytic assay (Example 10), fondaparinux; conditions: read-out: Fondap FXa EC50; fondaparinux 0.02 μg/mL; human antithrombin, bovine Factor Xa
Protocol: (§2) Two μl of test agent are added (range between 0.01 and 23 ug/ml) and incubated for 5 minutes at 23° C. Bovine Factor Xa was added to a final concentration of 0.636 nkat/mL and incubated for a further 10 minutes at 23° C.

[3] = test system: tinzaparin; experiment: FXa amidolytic assay (Example 10), tinzaparin; conditions: read-out: Tinzap FXa EC50; tinzaparin 0.1 ug/ml; human antithrombin, bovine Factor Xa
Protocol: as §2

[4] = test system: isolated human erythrocytes; experiment: cells; format: cell-based; conditions: Homo sapiens, Erythrocyte, 1 h, human RBC, 1 hour at 37° C.; read-out: Hemolysis EC50
Summary of the method: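 Test agent was serially diluted two-fold over 0.48–1000 µg/ml and incubated for 1 h at 37 °C with shaking, using erythrocytes from pooled human blood diluted in Tris-buffered saline pH 7.4 (0.22% stock). Hemolysis was measured as supernatant absorbance at 405 nm. A four-parameter logistic equation gave EC50, and melittin served as the positive control.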

[5] = test system: UFH; experiment: FXa amidolytic assay (Example 10), UFH; conditions: read-out: Heparin FXa uM EC50; UFH 0.03 units/mL; human antithrombin, bovine Factor Xa
Protocol: as §2

[6] = Cytotoxicity colorimetric assay, HepG2; format: cell-based, human; parameters: Cytotoxicity HepG2, percent printed in parentheses after the concentration: concentration or dose not given beside the values; conditions: human, HepG2 cells, one hour in serum-free media
Protocol: (§1) This assay measures the bioreduction of a novel tetrazolium compound to a soluble formazan product by viable cells. HepG2 cells were seeded in 96 well plates at 3×10^4 cells/well in MEM medium with 10% fetal bovine serum (FBS) 24 hours prior to use. NIH/3T3 cells were seeded in 96 well plates at 2×10^4 cells/well in DMEM medium with 10% bovine calf serum (BCS) 24 hours prior to use. Cell monolayers were rinsed in serum-free media and incubated for one hour with test agent in serum-free media. After incubation, the media was replaced with serum supplemented media and live cells were measured using the Cell Titer 96 Aqueous […] Assay kit (Promega, Madison, Wis.). EC50 values were determined using a four parameter logistic equation: Y=Bottom+(Top-Bottom)/(1+10̂((LogEC50-X)*HillSlope)).

[7] = test system: HepG2 cells; experiment: Cytotoxicity colorimetric assay, HepG2; format: cell-based, human; parameters: Cytotoxicity HepG2, percent printed in parentheses after the concentration: concentration or dose not given beside the values; conditions: at the concentration given
Protocol: as §1

[8] = test system: enoxaparin; experiment: FXa amidolytic assay (Example 10), enoxaparin; conditions: read-out: Enox FXa EC50; enoxaparin 0.1 ug/ml; human antithrombin, bovine Factor Xa
Protocol: as §2

[9] = Cytotoxicity colorimetric assay, NIH/3T3; format: cell-based, mouse; conditions: mouse, NIH/3T3 cells, one hour in serum-free media
Protocol: as §1

For `COc1ccc(NC(=O)[C@H](CCCCN)NC(=O)c2cc(NC(=O)[C@H](CCCCN)NC(=O)c3cc(NC(=O)[C@H](CCCCN)NC(=O)c4cc(NC(=O)[C@@H](N)Cc5c[nH]c6ccccc56)ccc4OC)ccc3OC)ccc2OC)cc1C(N)=O` [Compound 246], the EC50 [1] was 2.37 µM, the EC50 [2] was 2.54 µM and the EC50 [3] was 0.368 µM. For the same molecule, the EC50 [4] was > 1000 mg/L, the EC50 [5] was 0.11 µM and the EC50 at 1 h [6] was 60 mg/L (≈ 50.7 µM). For the same molecule, the “Cytotoxicity HepG2, percent printed in parentheses after the concentration” value (from here on “Cytotoxicity HepG2, percent printed”) [7] was 80% and the EC50 [8] was 0.514 µM.
Molecule `COc1ccc(NC(=O)[C@H](CCCCN)NC(=O)c2cc(NC(=O)[C@H](CCCCN)NC(=O)c3cc(NC(=O)[C@H](CCCCN)NC(=O)c4cc(NC(=O)[C@@H](N)CCCCN)ccc4OC)ccc3OC)ccc2OC)cc1C(=O)N[C@@H](Cc1ccccc1)C(=O)O` [Compound 263] has an EC50 [1] of 1.25 µM, an EC50 [2] of 1.6 µM and an EC50 [3] of 0.352 µM. For the same molecule, the EC50 [4] was > 1000 mg/L, the EC50 [5] was 0.179 µM and the EC50 at 1 h [6] was 255 mg/L (≈ 200 µM). For the same molecule, the “Cytotoxicity HepG2, percent printed” value [7] was 60% and the EC50 [8] was 0.376 µM.
With `COc1ccc(NC(=O)[C@H](CCCCN)NC(=O)c2cc(NC(=O)[C@H](CCCCN)NC(=O)c3cc(NC(=O)[C@H](CCCCN)NC(=O)c4cc(NC(=O)[C@@H](N)CCCCN)ccc4OC)ccc3OC)ccc2OC)cc1C(=O)Nc1cccc(C(=O)O)c1` [Compound 275] the EC50 [1] was 1.72 µM, the EC50 [2] was 0.579 µM and the EC50 [3] was 0.113 µM. The EC50 at 1 h [6] was 1000 mg/L (≈ 802 µM), the “Cytotoxicity HepG2, percent printed” value [7] was 50% and the EC50 [8] was 0.134 µM.
With `COc1ccc(NC(=O)[C@@H](CCCNC(=N)N)NC(=O)c2cc(NC(=O)[C@@H](CCCNC(=N)N)NC(=O)c3cc(NC(=O)[C@@H](CCCNC(=N)N)NC(=O)c4cc(NC(C)=O)ccc4OC)ccc3OC)ccc2OC)cc1C(=O)N[C@H](Cc1c[nH]c2ccccc12)C(=O)O` [Compound 304] the EC50 [1] was > 10 µM, the EC50 [2] was 0.209 µM and the EC50 [3] was 0.257 µM. For the same molecule, the EC50 [4] was ~500 mg/L (≈ 381 µM), the EC50 [5] was 0.242 µM and the “Cytotoxicity HepG2, percent printed” value [7] was 50%. The EC50 [8] was 0.256 µM.
For `COc1cc(OC)c(C(=O)N[C@H]2CC[C@H](NC(=O)c3cc(C(=O)N[C@H]4CC[C@H](NC(=O)c5cc(C(=O)NCCN)c(OC)cc5OC)CC4)c(OC)cc3OC)CC2)cc1C(=O)NCCN` [Compound 346], the EC50 [1] was 8.81 µM, the EC50 [2] was 0.146 µM and the EC50 [3] was 0.41 µM. For the same molecule, the EC50 [4] was > 1000 mg/L, the EC50 [5] was 0.772 µM and the EC50 at 1 h [6] was > 1000 mg/L. For the same molecule, the EC50 [8] was 0.198 µM and the EC50 at 1 h [9] was > 1000 mg/L.
In the case of `COc1cc(OC)c(C(=O)NC2CCC(NC(=O)c3cc(C(=O)NCCN)c(OC)cc3OC)CC2)cc1C(=O)O` (stereo not drawn) [Compound 347], the EC50 [1] is reported as > 10 µM, the EC50 [2] is reported as > 10 µM and the EC50 [3] is reported as > 5 µM. For the same molecule, the EC50 [5] was > 20 µM, the EC50 at 1 h [6] was > 1000 mg/L and the EC50 [8] was > 5 µM. The EC50 at 1 h [9] was > 1000 mg/L.
Molecule `COc1ccc(NC(=O)[C@H](CCCCN)NC(=O)c2cc(NC(=O)[C@H](CCCCN)NC(=O)c3cc(NC(=O)[C@H](CCCCN)NC(=O)c4cc(NC(=O)[C@H](CCCCN)NC(=O)c5c[nH]c6ccccc56)ccc4OC)ccc3OC)ccc2OC)cc1C(N)=O` [Compound 349] has an EC50 [1] of 2.02 µM, an EC50 [2] of 0.129 µM and an EC50 [3] of 0.09 µM. The EC50 [4] was > 1000 mg/L, the EC50 [5] was 0.213 µM and the EC50 at 1 h [6] was 236 mg/L (≈ 186 µM). For the same molecule, the EC50 [8] was 0.108 µM and the EC50 at 1 h [9] was 108 mg/L (≈ 85.1 µM).
Work on `COc1ccc(NC(=O)[C@H](CCCCN)NC(=O)c2cc(NC(=O)[C@H](CCCCN)NC(=O)c3cc(NC(=O)[C@H](CCCCN)NC(=O)c4cc(NC(=O)[C@H](CCCCN)NC(=O)c5c[nH]c6ccccc56)ccc4OC)ccc3OC)ccc2OCC(=O)O)cc1C(N)=O` [Compound 350] yielded an EC50 [1] of 0.627 µM, an EC50 [2] of 0.146 µM and an EC50 [3] of 0.128 µM. For the same molecule, the EC50 [4] was > 1000 mg/L, the EC50 [5] was 0.291 µM and the EC50 at 1 h [6] was 425 mg/L (≈ 324 µM). The EC50 [8] was 0.147 µM and the EC50 at 1 h [9] was 150 mg/L (≈ 114 µM).
